In patent US20040023884A1, “Biologically active peptides from functional domains of bactericidal/permeability-increasing protein and uses thereof” (priority 1993, published 2004):
≈ marks a conversion by molar mass, not a printed value. Square brackets hold non-standard residues; d marks the D form. Ends that are not written are not given here. Peptide text beside a SMILES is read from it. 1Nal = N[C@@H](Cc1cccc2ccccc12)C(=O)O

Legend:
[1] = tested on: rough mutant E. coli J5 bacteria; test: Radial diffusion bactericidal assay, E. coli J5; type: cell-based; conditions: for pmol added to well to achieve a 30 mm^2 bactericidal zone, E. coli J5 / bactericidal activity (in words): radial diffusion; for pmol added to well to achieve a 30 mm^2 bactericidal zone, E. coli J5: PROBIT analysis, E. coli J5 (rough); for bactericidal activity (in words): E. coli J5; for activity of position 95 substitution variants (in words): activity not further specified
Procedure, shortened: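 Log-phase bacteria (3 h at 37 °C in tryptic soy broth), washed in 10 mM sodium phosphate pH 7.4, were embedded at 4×10^6 CFU/mL in underlayer agarose. BPI proteolytic fragments (5 or 10 μL) went into 3 mm wells for 3 h at 37 °C, then agarose overlay and overnight 37 °C growth. Clear zones were measured by micrometer.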

[2] = 3H-heparin binding assay (affinity and capacity); conditions: for Heparin Capacity: heparin bound at saturation; for Kd: read-out: Heparin Affinity
Procedure, shortened: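 Peptide fragments were bound to PVDF-membrane wells and incubated with 3H-heparin in blocking buffer for 1 h at 4 °C. After washing, bound radioactivity was quantified by liquid scintillation counting, with BSA background subtracted; rBPI23 served as positive control.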

[3] = tested on: E. coli 0111:B4 (smooth) bacteria; test: Radial diffusion bactericidal assay, E. coli 0111:B4; type: cell-based; conditions: radial diffusion; PROBIT analysis; E. coli O111:B4 (smooth)
Staphylococcus aureus = test: Radial diffusion bactericidal assay, Staphylococcus aureus; type: cell-based; conditions: radial diffusion; PROBIT analysis; S. aureus
RAW 264.7 cells = test: LPS neutralization cellular proliferation assay, RAW 264.7 cells; type: cell-based, mouse
Description: In this assay, mouse RAW 264.7 cells (ATCC Accession No. T1B71), maintained in RPMI 1640 media (GIBCO), supplemented with 10 mM HEPES buffer (pH 7.4), 2 mM L-glutamine, penicillin (100U/mL), streptomcin (100 μg/mL), 0.075% sodium bicarbonate, […] 2-mercaptoethanol and 10% fetal bovine serum (Hyclone, Inc., Logan, Utah), were first induced by incubation in the presence of 50U/mL recombinant mouse y-interferon (Genzyme, Cambridge, Mass.) for 24 h prior to assay. Induced cells were then mechanically collected and centrifuged at 500×g at 4° C. and then resuspended in 50 mL RPMI 1640 media (without supplements), re-centrifuged and again resuspended in RPMI 1640 media (without supplements). The cells were counted and their concentration adjusted to 2×10^5 cells/mL and 100 μL aliquots were added to each well of a 96-well microtitre plate. The cells were then incubated for about 15 hours with E. coli O113 LPS (Control Standard. Assoc. of Cape Cod. Woods Hole, Mass.), which was added in 100 μL/well aliquots at a concentration of […] in serum-free RPMI 1640 media (this concentration being the result of titration experiments in which LPS concentration was varied between 50 pg/mL and 100 ng/mL). This incubation was performed in the absence or presence of BPI functional domain peptides in varying concentrations between 25 ng/mL and 50 μg/mL. Recombinant human BPI was used as a positive control at a concentration of 1 μg/mL. Cell proliferation was quantitatively measured by the addition of 1 μCi/well [^3H]-thymidine 5 hours after the time of initiation of the assay. After the 15-hour incubation, labeled cells were harvested onto glass fiber filters with a cell harvester (Inotech Biosystems, EQ-384, Sample Processing and Filter Counting System, Lansing, Mich.).

Molecule: CC[C@H](C)[C@H](N)C(=O)N[C@@H](CCCCN)C(=O)N[C@H](C(=O)N[C@@H](CO)C(=O)NCC(=O)N[C@@H](CCCCN)C(=O)N[C@@H](Cc1cccc2ccccc12)C(=O)N[C@@H](CCCCN)C(=O)N[C@@H](C)C(=O)N[C@@H](CCC(N)=O)C(=O)N[C@@H](Cc1ccccc1)C(=O)N[C@@H](CCCNC(=N)N)C(=O)N[C@@H](Cc1ccccc1)C(=O)N[C@@H](CC(C)C)C(=O)N[C@@H](CCCCN)C(=O)N[C@@H](CCCCN)C(=O)N[C@@H](CO)C(=O)N[C@@H](CCCCN)C(=O)N[C@H](C(=O)NCC(=O)N[C@@H](Cc1c[nH]c2ccccc12)C(=O)N[C@@H](CC(C)C)C(=O)N[C@H](C(=O)N[C@@H](Cc1ccccc1)C(=O)N[C@@H](CC(C)C)C(=O)N[C@@H](Cc1ccccc1)C(=O)N[C@@H](Cc1c[nH]cn1)C(=O)N[C@@H](CCCCN)C(=O)N[C@@H](CCCCN)C(=O)O)[C@@H](C)CC)C(C)C)[C@@H](C)CC [BPI.98] (H-IKISGK[1Nal]KAQFRFLKKSKVGWLIFLFHKK-OH)
- pmol added to well to achieve a 30 mm^2 bactericidal zone, E. coli J5 [1]: 4,384.14 pmol
- Heparin Capacity [2]: 1678.4 ng
- Kd [2]: 683 nM
- pmol added to well to achieve a 30 mm^2 bactericidal zone, E. coli O111:B4 [3]: 63,709.98 pmol
- pmol added to well to achieve a 30 mm^2 bactericidal zone, S. aureus (Staphylococcus aureus): b (no detectable activity up to 5 μg/well)
- EC50 (peptide concentration at which the growth inhibitory effect of LPS was reversed by 50%) (RAW 264.7 cells): 0.16 ± 0.08 µg/mL
- IC50 (peptide concentration at which RAW cell growth was inhibited by 50%) (RAW 264.7 cells): 16.5 ± 1.9 µg/mL (≈ 4.62 µM)

Molecule: CC[C@H](C)[C@H](N)C(=O)N[C@@H](CCCCN)C(=O)N[C@H](C(=O)N[C@@H](CO)C(=O)NCC(=O)N[C@@H](CCCCN)C(=O)N[C@@H](Cc1c[nH]c2ccccc12)C(=O)N[C@@H](CCCCN)C(=O)N[C@@H](C)C(=O)N[C@@H](CCC(N)=O)C(=O)N[C@@H](CCCCN)C(=O)N[C@@H](CCCNC(=N)N)C(=O)N[C@@H](Cc1ccccc1)C(=O)N[C@@H](CC(C)C)C(=O)N[C@@H](CCCCN)C(=O)NCCCC[C@H](NC(=O)[C@H](CCCCN)NC(=O)[C@H](CC(C)C)NC(=O)[C@H](Cc1ccccc1)NC(=O)[C@H](CCCNC(=N)N)NC(=O)[C@H](CCCCN)NC(=O)[C@H](CCC(N)=O)NC(=O)[C@H](C)NC(=O)[C@H](CCCCN)NC(=O)[C@H](Cc1c[nH]c2ccccc12)NC(=O)[C@H](CCCCN)NC(=O)CNC(=O)[C@H](CO)NC(=O)[C@@H](NC(=O)[C@H](CCCCN)NC(=O)[C@@H](N)[C@@H](C)CC)[C@@H](C)CC)C(=O)NCCCC[C@H](NC(=O)[C@H](CCCCNC(=O)[C@H](CCCCN)NC(=O)[C@H](CC(C)C)NC(=O)[C@H](Cc1ccccc1)NC(=O)[C@H](CCCNC(=N)N)NC(=O)[C@H](CCCCN)NC(=O)[C@H](CCC(N)=O)NC(=O)[C@H](C)NC(=O)[C@H](CCCCN)NC(=O)[C@H](Cc1c[nH]c2ccccc12)NC(=O)[C@H](CCCCN)NC(=O)CNC(=O)[C@H](CO)NC(=O)[C@@H](NC(=O)[C@H](CCCCN)NC(=O)[C@@H](N)[C@@H](C)CC)[C@@H](C)CC)NC(=O)[C@H](CCCCN)NC(=O)[C@H](CC(C)C)NC(=O)[C@H](Cc1ccccc1)NC(=O)[C@H](CCCNC(=N)N)NC(=O)[C@H](CCCCN)NC(=O)[C@H](CCC(N)=O)NC(=O)[C@H](C)NC(=O)[C@H](CCCCN)NC(=O)[C@H](Cc1c[nH]c2ccccc12)NC(=O)[C@H](CCCCN)NC(=O)CNC(=O)[C@H](CO)NC(=O)[C@@H](NC(=O)[C@H](CCCCN)NC(=O)[C@@H](N)[C@@H](C)CC)[C@@H](C)CC)C(=O)NCCC(=O)O)[C@@H](C)CC [MAP.1, β-alanyl-Nα,Nε-substituted-{Nα,Nε(BPI.2)lysyl}lysine]
- bactericidal activity (in words) [1]: highly bactericidal
- pmol added to well to achieve a 30 mm^2 bactericidal zone, E. coli J5 [1]: 105.71 pmol
- heparin binding capacity (in words) [2]: extremely high heparin capacity
- Heparin Capacity [2]: 459.1 ng
- Kd [2]: 937 nM
- pmol added to well to achieve a 30 mm^2 bactericidal zone, E. coli O111:B4 [3]: 552.79 pmol
- pmol added to well to achieve a 30 mm^2 bactericidal zone, S. aureus (Staphylococcus aureus): 1,382.60 pmol
- EC50 (peptide concentration at which the growth inhibitory effect of LPS was reversed by 50%) (RAW 264.7 cells): 0.45 ± 0.1 µg/mL

Molecule: IKISGKWKAFKRFLK [BPI.81]
- pmol added to well to achieve a 30 mm^2 bactericidal zone, E. coli J5 [1]: 283.84 pmol
- Heparin Capacity [2]: 318.4 ng
- Kd [2]: 335 nM
- pmol added to well to achieve a 30 mm^2 bactericidal zone, E. coli O111:B4 [3]: 3,018.90 pmol
- pmol added to well to achieve a 30 mm^2 bactericidal zone, S. aureus (Staphylococcus aureus): 9,477.20 pmol
- IC50 (peptide concentration at which RAW cell growth was inhibited by 50%) (RAW 264.7 cells): 14 ± 0.2 µg/mL
- behaviour in the RAW 264.7 proliferation assay (in words) (RAW 264.7 cells): unable to reverse the growth inhibitory effect of LPS

Molecule: IKISGKWKAQFDRFLK [BPI.76]
- activity of position 95 substitution variants (in words) [1]: dramatically reduced activity, to levels lower than the original peptide (BPI.2)
- pmol added to well to achieve a 30 mm^2 bactericidal zone, E. coli J5 [1]: 10,519.55 pmol
- Heparin Capacity [2]: 144.4 ng
- Kd [2]: 128 nM
- pmol added to well to achieve a 30 mm^2 bactericidal zone, E. coli O111:B4 [3]: b (no detectable activity up to 5 μg/well)
- pmol added to well to achieve a 30 mm^2 bactericidal zone, S. aureus (Staphylococcus aureus): b (no detectable activity up to 5 μg/well)
- EC50 (peptide concentration at which the growth inhibitory effect of LPS was reversed by 50%) (RAW 264.7 cells): >50 µg/mL
- IC50 (peptide concentration at which RAW cell growth was inhibited by 50%) (RAW 264.7 cells): — (No proliferation decrease up to 50 μg/ml)

Molecule: IKISGKWKAQFRFLK [BPI.73]
- activity of position 95 substitution variants (in words) [1]: improved activity compared with the alanine substitution species
- bactericidal activity (in words) [1]: highly bactericidal
- pmol added to well to achieve a 30 mm^2 bactericidal zone, E. coli J5 [1]: 57.28 pmol
- heparin binding capacity (in words) [2]: extremely high heparin capacity
- Heparin Capacity [2]: 413.4 ng
- Kd [2]: 227 nM
- pmol added to well to achieve a 30 mm^2 bactericidal zone, E. coli O111:B4 [3]: 3,290.60 pmol
- pmol added to well to achieve a 30 mm^2 bactericidal zone, S. aureus (Staphylococcus aureus): 2,313,133.50 pmol
- EC50 (peptide concentration at which the growth inhibitory effect of LPS was reversed by 50%) (RAW 264.7 cells): 22 ± 10 µg/mL
- IC50 (peptide concentration at which RAW cell growth was inhibited by 50%) (RAW 264.7 cells): — (No proliferation decrease up to 50 μg/ml)

Molecule: IKISGKWKAQWRFLK [BPI.77]
- pmol added to well to achieve a 30 mm^2 bactericidal zone, E. coli J5 [1]: 455.08 pmol
- Heparin Capacity [2]: 581.7 ng
- Kd [2]: 302 nM
- pmol added to well to achieve a 30 mm^2 bactericidal zone, E. coli O111:B4 [3]: b (no detectable activity up to 5 μg/well)
- pmol added to well to achieve a 30 mm^2 bactericidal zone, S. aureus (Staphylococcus aureus): 1,684.35 pmol
- EC50 (peptide concentration at which the growth inhibitory effect of LPS was reversed by 50%) (RAW 264.7 cells): 10 ± 32 µg/mL
- IC50 (peptide concentration at which RAW cell growth was inhibited by 50%) (RAW 264.7 cells): >50 µg/mL

Molecule: KWKAAARFLKKWKAQKRFLK [BPI.46]
- bactericidal activity (in words) [1]: highly bactericidal
- pmol added to well to achieve a 30 mm^2 bactericidal zone, E. coli J5 [1]: 186.69 pmol
- heparin binding capacity (in words) [2]: extremely high heparin capacity
- Heparin Capacity [2]: 321.1 ng
- Kd [2]: 1070 nM
- pmol added to well to achieve a 30 mm^2 bactericidal zone, E. coli O111:B4 [3]: 2,970.26 pmol
- pmol added to well to achieve a 30 mm^2 bactericidal zone, S. aureus (Staphylococcus aureus): 3,810,752.30 pmol
- EC50 (peptide concentration at which the growth inhibitory effect of LPS was reversed by 50%) (RAW 264.7 cells): 1.9 ± 1.9 µg/mL
- IC50 (peptide concentration at which RAW cell growth was inhibited by 50%) (RAW 264.7 cells): 18.8 ± 0.8 µg/mL
